Source: the NIST ThermoML archive (doi:10.1021/je050498q)

Experiments:
[1] = wn = mass fraction of the nth substance listed; settings: 101 kPa, Liquid
[2] = mn = molality of the nth substance listed, in mol/kg; settings: 101 kPa, Liquid

O=C([O-])[C@H](O)[C@@H](O)C(=O)[O-].[Na+].[Na+] [disodium L-tartrate] + O
Settings | mass density, 298.15 K [kg/m3] | mass density, 308.15 K [kg/m3] | mass density, 318.15 K [kg/m3] | speed of sound, 298.15 K [m/s] | speed of sound, 308.15 K [m/s] | speed of sound, 318.15 K [m/s] | viscosity, 298.15 K [mPa·s] | viscosity, 308.15 K [mPa·s] | viscosity, 318.15 K [mPa·s]
[1], w1 = 0.01986 | – | – | – | – | – | – | 0.932 | 0.773 | 0.644
[1], w1 = 0.03991 | – | – | – | – | – | – | 0.995 | 0.824 | 0.683
[1], w1 = 0.06024 | – | – | – | – | – | – | 1.06 | 0.885 | 0.726
[1], w1 = 0.08009 | – | – | – | – | – | – | 1.137 | 0.952 | 0.782
[1], w1 = 0.09999 | – | – | – | – | – | – | 1.23 | 1.02 | 0.832
[1], w1 = 0.12 | – | – | – | – | – | – | 1.321 | 1.098 | 0.894
[1], w1 = 0.14 | – | – | – | – | – | – | 1.431 | 1.184 | 0.959
[1], w1 = 0.16 | – | – | – | – | – | – | 1.56 | 1.278 | 1.024
[1], w1 = 0.1795 | – | – | – | – | – | – | 1.706 | 1.38 | 1.101
[1], w1 = 0.2007 | – | – | – | – | – | – | 1.891 | 1.519 | 1.215
[1], w1 = 0.2196 | – | – | – | – | – | – | 2.086 | 1.669 | 1.334
[1], w1 = 0.2402 | – | – | – | – | – | – | 2.301 | 1.857 | 1.475
[1], w1 = 0.26 | – | – | – | – | – | – | 2.563 | 2.055 | 1.647
[1], w1 = 0.2806 | – | – | – | – | – | – | 2.897 | 2.305 | 1.846
[2], m1 = 0.0325 | 1001.45 | 998.34 | 994.47 | 1502 | 1524.8 | 1541.3 | – | – | –
[2], m1 = 0.0351 | 1001.8 | 998.7 | 994.82 | 1502.3 | 1525.2 | 1541.7 | – | – | –
[2], m1 = 0.0405 | 1002.51 | 999.4 | 995.52 | 1503.1 | 1526 | 1542.3 | – | – | –
[2], m1 = 0.0552 | 1004.48 | 1001.34 | 997.43 | 1505.4 | 1528 | 1544.3 | – | – | –
[2], m1 = 0.0576 | 1004.79 | 1001.64 | 997.72 | 1505.7 | 1528.4 | 1544.6 | – | – | –
[2], m1 = 0.0673 | 1006.08 | 1002.91 | 998.99 | 1507.2 | 1529.7 | 1545.9 | – | – | –
[2], m1 = 0.0747 | 1007.06 | 1003.87 | 999.92 | 1508.2 | 1530.7 | 1547 | – | – | –
[2], m1 = 0.0814 | 1007.94 | 1004.73 | 1000.77 | 1509.9 | 1531.6 | 1547.7 | – | – | –
[2], m1 = 0.1365 | 1015.14 | 1011.79 | 1007.83 | 1517.3 | 1539.2 | 1554.9 | – | – | –
[2], m1 = 0.2798 | 1033.29 | 1029.68 | 1025.48 | 1537.5 | 1558.2 | 1572.9 | – | – | –
[2], m1 = 0.4159 | 1049.92 | 1046.11 | 1041.78 | 1556.3 | 1575.8 | 1589.4 | – | – | –
[2], m1 = 0.5661 | 1067.63 | 1063.54 | 1059.16 | 1576.4 | 1594.6 | 1607.3 | – | – | –
[2], m1 = 0.7158 | 1084.68 | 1080.39 | 1075.77 | 1598.6 | 1615.3 | 1624.1 | – | – | –
[2], m1 = 0.888 | 1103.52 | 1098.96 | 1094.15 | 1618.5 | 1633.8 | 1644 | – | – | –
[2], m1 = 1.055 | 1121.13 | 1116.46 | 1111.35 | 1639.6 | 1653.6 | 1662.2 | – | – | –
[2], m1 = 1.211 | 1137 | 1132.16 | 1126.7 | 1659 | 1671.7 | 1679.2 | – | – | –
[2], m1 = 1.412 | 1156.69 | 1151.68 | 1146.41 | 1683.6 | 1694.5 | 1701.2 | – | – | –
[2], m1 = 1.593 | 1173.71 | 1168.58 | 1163.14 | 1705.1 | 1714.6 | 1719.8 | – | – | –
[2], m1 = 1.749 | 1187.9 | 1182.99 | 1176.91 | 1723.3 | 1732 | 1734.8 | – | – | –
[2], m1 = 2.203 | 1226.56 | 1221.08 | 1215.23 | 1774 | 1778.7 | 1779.7 | – | – | –
